In patent publication US20110071108A1, “Beta-Cyclodextrin Derivatives as Antibacterial Agents” (Pinnacle Pharmaceuticals, Inc., priority 2005, published 2011):

What was measured:
Assay in all cases: Bacterial panel testing, MIC by broth microdilution
Format in all cases: cell-based
Conditions in all cases: 20-24 hours growth
[1] = tested on: Staphylococcus aureus
Method in brief: (§1)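 Strains grown 2-4 h, 37° C, MH or BHI broth per strain; McFarland-standardized, diluted in media. Cpd 10 μg/ml in DMSO, 2-fold serial dilution cols 2-12. Rifampicin included. 20-24 h growth; clear wells scored.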

[2] = tested on: Pseudomonas aeruginosa
Method in brief: as §1

[3] = tested on: Bacillus atrophaeus
Method in brief: as §1

[4] = tested on: Eschericia coli
Method in brief: as §1

[5] = tested on: Salmonella choleraesuis
Method in brief: as §1

[6] = tested on: Enterococcus faecium
Method in brief: as §1

SMILES	MIC SA [1]	MIC PA [2]	MIC BA [3]	MIC EC [4]	MIC SC [5]	MIC EF [6]
OC[C@H]1O[C@@H]2O[C@H]3[C@H](O)[C@@H](O)[C@@H](O[C@H]4[C@H](O)[C@@H](O)[C@@H](O[C@H]5[C@H](O)[C@@H](O)[C@@H](O[C@H]6[C@H](O)[C@@H](O)[C@@H](O[C@H]7[C@H](O)[C@@H](O)[C@@H](O[C@H]8[C@H](O)[C@@H](O)[C@@H](O[C@H]1[C@H](O)[C@H]2O)O[C@@H]8CO)O[C@@H]7CO)O[C@@H]6CO)O[C@@H]5CO)O[C@@H]4CO)O[C@@H]3CO	>200 µg/mL	>200 µg/mL	>200 µg/mL	>200 µg/mL	>200 µg/mL	>200 µg/mL
CN(C)C[C@H]1O[C@@H]2O[C@H]3[C@H](O)[C@@H](O)[C@@H](O[C@H]4[C@H](O)[C@@H](O)[C@@H](O[C@H]5[C@H](O)[C@@H](O)[C@@H](O[C@H]6[C@H](O)[C@@H](O)[C@@H](O[C@H]7[C@H](O)[C@@H](O)[C@@H](O[C@H]8[C@H](O)[C@@H](O)[C@@H](O[C@H]1[C@H](O)[C@H]2O)O[C@@H]8CN(C)C)O[C@@H]7CN(C)C)O[C@@H]6CN(C)C)O[C@@H]5CN(C)C)O[C@@H]4CN(C)C)O[C@@H]3CN(C)C	>200 µg/mL	>200 µg/mL	<0.2 µg/mL	>200 µg/mL	>200 µg/mL	>200 µg/mL
CC(C)[C@H](N)C(=O)NC[C@H]1O[C@@H]2O[C@H]3[C@H](O)[C@@H](O)[C@@H](O[C@H]4[C@H](O)[C@@H](O)[C@@H](O[C@H]5[C@H](O)[C@@H](O)[C@@H](O[C@H]6[C@H](O)[C@@H](O)[C@@H](O[C@H]7[C@H](O)[C@@H](O)[C@@H](O[C@H]8[C@H](O)[C@@H](O)[C@@H](O[C@H]1[C@H](O)[C@H]2O)O[C@@H]8CNC(=O)[C@@H](N)C(C)C)O[C@@H]7CNC(=O)[C@@H](N)C(C)C)O[C@@H]6CNC(=O)[C@@H](N)C(C)C)O[C@@H]5CNC(=O)[C@@H](N)C(C)C)O[C@@H]4CNC(=O)[C@@H](N)C(C)C)O[C@@H]3CNC(=O)[C@@H](N)C(C)C.Cl.Cl.Cl.Cl.Cl.Cl.Cl	>200 µg/mL	>200 µg/mL	>200 µg/mL	>200 µg/mL	>200 µg/mL	>200 µg/mL
Cl.Cl.Cl.Cl.Cl.Cl.Cl.N[C@@H](CC(=O)O)C(=O)NC[C@H]1O[C@@H]2O[C@H]3[C@H](O)[C@@H](O)[C@@H](O[C@H]4[C@H](O)[C@@H](O)[C@@H](O[C@H]5[C@H](O)[C@@H](O)[C@@H](O[C@H]6[C@H](O)[C@@H](O)[C@@H](O[C@H]7[C@H](O)[C@@H](O)[C@@H](O[C@H]8[C@H](O)[C@@H](O)[C@@H](O[C@H]1[C@H](O)[C@H]2O)O[C@@H]8CNC(=O)[C@@H](N)CC(=O)O)O[C@@H]7CNC(=O)[C@@H](N)CC(=O)O)O[C@@H]6CNC(=O)[C@@H](N)CC(=O)O)O[C@@H]5CNC(=O)[C@@H](N)CC(=O)O)O[C@@H]4CNC(=O)[C@@H](N)CC(=O)O)O[C@@H]3CNC(=O)[C@@H](N)CC(=O)O	>200 µg/mL	>200 µg/mL	>200 µg/mL	>200 µg/mL	>200 µg/mL	>200 µg/mL
Cl.Cl.Cl.Cl.Cl.Cl.Cl.NCCCC(=O)NC[C@H]1O[C@@H]2O[C@H]3[C@H](O)[C@@H](O)[C@@H](O[C@H]4[C@H](O)[C@@H](O)[C@@H](O[C@H]5[C@H](O)[C@@H](O)[C@@H](O[C@H]6[C@H](O)[C@@H](O)[C@@H](O[C@H]7[C@H](O)[C@@H](O)[C@@H](O[C@H]8[C@H](O)[C@@H](O)[C@@H](O[C@H]1[C@H](O)[C@H]2O)O[C@@H]8CNC(=O)CCCN)O[C@@H]7CNC(=O)CCCN)O[C@@H]6CNC(=O)CCCN)O[C@@H]5CNC(=O)CCCN)O[C@@H]4CNC(=O)CCCN)O[C@@H]3CNC(=O)CCCN	>200 µg/mL	>200 µg/mL	>200 µg/mL	>200 µg/mL	>200 µg/mL	>200 µg/mL
Cl.Cl.Cl.Cl.Cl.Cl.Cl.N[C@@H](Cc1ccc(OCc2ccccc2)cc1)C(=O)NC[C@H]1O[C@@H]2O[C@H]3[C@H](O)[C@@H](O)[C@@H](O[C@H]4[C@H](O)[C@@H](O)[C@@H](O[C@H]5[C@H](O)[C@@H](O)[C@@H](O[C@H]6[C@H](O)[C@@H](O)[C@@H](O[C@H]7[C@H](O)[C@@H](O)[C@@H](O[C@H]8[C@H](O)[C@@H](O)[C@@H](O[C@H]1[C@H](O)[C@H]2O)O[C@@H]8CNC(=O)[C@@H](N)Cc1ccc(OCc2ccccc2)cc1)O[C@@H]7CNC(=O)[C@@H](N)Cc1ccc(OCc2ccccc2)cc1)O[C@@H]6CNC(=O)[C@@H](N)Cc1ccc(OCc2ccccc2)cc1)O[C@@H]5CNC(=O)[C@@H](N)Cc1ccc(OCc2ccccc2)cc1)O[C@@H]4CNC(=O)[C@@H](N)Cc1ccc(OCc2ccccc2)cc1)O[C@@H]3CNC(=O)[C@@H](N)Cc1ccc(OCc2ccccc2)cc1	>200 µg/mL	>200 µg/mL	>200 µg/mL	>200 µg/mL	>200 µg/mL	>200 µg/mL
